Source: PubChem BioAssay (NCI)
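Five compound concentrations were applied to cells in 96-well plates for 48 hours; endpoints were derived by simple linear interpolation of the resulting dose-response curve. TGI marks complete inhibition of growth.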

Columns and labels:
Test in all cases: growth of human tumour cells (NCI), 48 h
NCI-H460 lung = test system: NCI-H460 lung
SF-295 CNS = test system: SF-295 CNS
RXF 393 renal = test system: RXF 393 renal
DU-145 prostate = test system: DU-145 prostate
A549 NSCLC = test system: A549 NSCLC
SK-MEL-5 melanoma = test system: SK-MEL-5 melanoma
PC-3 prostate = test system: PC-3 prostate
SK-MEL-2 melanoma = test system: SK-MEL-2 melanoma
OVCAR-3 ovarian = test system: OVCAR-3 ovarian
SF-268 CNS = test system: SF-268 CNS

Row | Structure (SMILES) | TGI (NCI-H460 lung) | TGI (SF-295 CNS) | TGI (RXF 393 renal) | TGI (DU-145 prostate) | TGI (A549 NSCLC) | TGI (SK-MEL-5 melanoma) | TGI (PC-3 prostate) | TGI (SK-MEL-2 melanoma) | TGI (OVCAR-3 ovarian) | TGI (SF-268 CNS)
1 | NC(=O)CNC(=O)[C@@H]1C[C@@H](OCCC(=O)O)CN1C(=O)OCc1ccccc1 | > 100 µM | > 100 µM | > 100 µM | > 100 µM | > 100 µM | > 100 µM | > 100 µM | > 100 µM | > 100 µM | > 100 µM
2 | O[C@H]1[C@H](O)[C@@H](Cn2nnc(-c3ccccc3)c2-c2ccccc2)OCO[C@@H]1Cn1nnc(-c2ccccc2)c1-c1ccccc1 | 13.4 µM | 13 µM | 9.41 µM | 23.2 µM | 13.5 µM | 10.2 µM | 8.83 µM | 9.41 µM | 9.14 µM | 25 µM
3 | CC(=O)OC(=C(C#N)C#N)c1nccnc1C(C)=O | > 20 µM | > 20 µM | 15.7 µM | > 20 µM | > 20 µM | > 20 µM | > 20 µM | > 20 µM | > 20 µM | 7.67 µM
4 | Cc1cc(C)c2c(=O)cc(-c3ccc4ccccc4c3)[nH]c2n1 | > 100 µM | > 93 µM | > 100 µM | > 100 µM | > 100 µM | 9.42 µM | > 100 µM | > 100 µM | > 100 µM | > 100 µM
5 | C[N+](C)(C)C(C1=CCCC1=O)c1ccccc1 (stereo not given) | 89.8 µM | > 100 µM | 41.8 µM | > 100 µM | > 100 µM | > 100 µM | > 100 µM | > 100 µM | > 100 µM | 60.1 µM
6 | C=CCn1c(-c2ccc(Cl)cc2Cl)csc1=Nc1c(C)n(C)n(-c2ccccc2)c1=O | 27.1 µM | 21.2 µM | 32.1 µM | 27.3 µM | 23.1 µM | 13.1 µM | 20.6 µM | 29.2 µM | 23.7 µM | 33.4 µM
7 | CC(=O)C1=C(C)N(c2ccccc2)C2(O)C=CC(=O)C3=C(O)c4ccccc4C(=O)C312 (stereo not given) | > 100 µM | 38.5 µM | 36.6 µM | 28.5 µM | > 100 µM | 24.9 µM | 41.5 µM | 39.2 µM | 11.4 µM | 57.8 µM
8 | Cc1nc2cccc([N+](=O)[O-])c2n1CCCN(C)C | > 100 µM | > 100 µM | > 100 µM | > 100 µM | > 100 µM | > 100 µM | > 100 µM | > 100 µM | > 100 µM | > 100 µM
9 | Cc1c(-c2ccc(O)c(O)c2)oc(=O)c2c(O)cccc12 | 41 µM | 42.2 µM | 36 µM | 47.2 µM | > 100 µM | 24.8 µM | 52.1 µM | 28 µM | 66.1 µM | 50.7 µM
10 | NC(N)=NS(=O)(=O)c1ccc(NC(=O)c2ccc3nc4ccccc4c(N)c3c2)cc1 | > 100 µM | > 100 µM | > 100 µM | > 100 µM | > 100 µM | > 100 µM | > 100 µM | > 100 µM | > 100 µM | > 100 µM
11 | COc1cc(Nc2nc3ccccc3nc2C(C)C)cc(OC)c1OC | > 100 µM | > 100 µM | > 100 µM | > 100 µM | > 100 µM | > 100 µM | > 100 µM | > 100 µM | > 100 µM | > 100 µM
12 | Cc1cccc(C(=O)O)c1CC1NCCC2c3ccccc3NC12 (stereo not given) | > 100 µM | > 100 µM | > 100 µM | > 100 µM | > 100 µM | > 100 µM | > 100 µM | > 100 µM | > 100 µM | > 100 µM
13 | COc1cc(C(=O)OCCn2[nH]c(-c3ccc(Cl)cc3)nc2=S)cc(OC)c1OC | > 100 µM | > 100 µM | > 100 µM | > 100 µM | > 100 µM | > 100 µM | > 100 µM | > 100 µM | > 100 µM | > 100 µM
14 | NC(=O)C1N=NSC1NC(=O)c1ccc([N+](=O)[O-])cc1 (stereo not given) | > 100 µM | > 100 µM | > 100 µM | > 100 µM | > 100 µM | 69.8 µM | > 100 µM | 65 µM | > 100 µM | > 100 µM
15 | COc1ccc(N(C(=O)NCCO)c2ccccc2)cc1 | > 100 µM | > 100 µM | > 100 µM | > 100 µM | > 100 µM | > 100 µM | > 100 µM | > 100 µM | > 100 µM | > 100 µM
16 | O=C1C=C2CC[C@H]3[C@@H]4CC[C@H](Oc5c6ccccc6nc6ccccc56)[C@H]4CC[C@@H]3[C@H]2CC1 | > 100 µM | > 100 µM | 91.5 µM | > 100 µM | > 100 µM | > 100 µM | > 100 µM | > 100 µM | > 100 µM | > 100 µM
17 | O=C(CCc1ccc(O)cc1)NCCCNC(=O)CCc1ccc(O)cc1 | > 100 µM | > 100 µM | > 100 µM | > 100 µM | > 100 µM | > 100 µM | > 100 µM | > 100 µM | > 100 µM | > 100 µM
